Experimental data taken from patent US20210405025A1, “IDENTIFYING COMPOUNDS FOR TREATING CANCER AND USE THEREOF” (THE UAB RESEARCH FOUNDATION, priority 2018, published 2021).
Counter-ions that a name gives are not always drawn. Starred links: 1 amine or outer side, 2 acyl side, 3 side chain; linkers in the order of their positions; H or OH if unused. Positions of bridges follow the written chain, without caps; N, C: chain ends. Non-standard residues stand in square brackets, D forms with d. Residues, ends and D or L forms follow the SMILES beside them. Chains are numbered I, II in the order given. Actinocin(9to1) = Cc1c2oc3c(C)ccc(C(=O)[*:1])c3nc-2c(C(=O)[*:2])c(N)c1=O; NMeV = CN[C@H](C(=O)O)C(C)C; Sar = CNCC(=O)O

Each compound was assayed on relapsed AML cells (assay: Drug sensitivity assay, 1,536-well, 3-day culture with individual approved drugs at 10 μM, viability by alamarBlue). Details: not given.
Type: cell-based, human
Summary of the method: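 FACS-sorted viable myeloid blasts from thawed AML samples, 4,000-4,500 cells per 5 μL well, cultured in IMDM with 15% BIT, SCF, FLT3L, IL-3, G-CSF. Drugs added per well; after three days percentage of live cells measured to gauge killing.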

Row | Compound | #Cases >70% cell death
1 | ZINC PYRITHIONE | 9

Same assay, conditions: number of relapsed AML cases out of 18 tested with >70% cell death; 10 μM, 3-day culture

Row | Compound | #Cases >70% cell death
2 | CCN(CC)CCOCCOC(=O)C(CC)(CC)c1ccccc1.O=C(O)CC(O)(CC(=O)O)C(=O)O [OXELAIDIN CITRATE] | 2
3 | Cc1ncc2c(c1O)COC2c1ccc(Cl)cc1 (centres unmarked) [CICLETANINE] | 4
4 | CCC(COC(=O)c1cc(OC)c(OC)c(OC)c1)(c1ccccc1)N(C)C (centres unmarked) [TRIMEBUTINE] | 1
5 | COc1ccc(CCN2CCC(Nc3nc4ccccc4n3Cc3ccc(F)cc3)CC2)cc1 [ASTEMIZOLE] | 7
6 | Cc1c2oc3c(C)ccc(C(=O)N[C@@H]4C(=O)N[C@H](C(C)C)C(=O)N5CCC[C@H]5C(=O)N(C)CC(=O)N(C)[C@@H](C(C)C)C(=O)O[C@@H]4C)c3nc-2c(C(=O)N[C@@H]2C(=O)N[C@H](C(C)C)C(=O)N3CCC[C@H]3C(=O)N(C)CC(=O)N(C)[C@@H](C(C)C)C(=O)O[C@@H]2C)c(N)c1=O [DACTINOMYCIN] (I: T[dV]P[Sar][NMeV] / II: T[dV]P[Sar][NMeV]; ester I:1-I:C, II:1-II:C; linker I:N-II:N via Actinocin(9to1)) | 17
7 | CC[C@@]1(O)C(=O)OCc2c1cc1n(c2=O)Cc2cc3cc(O)ccc3nc2-1 [10-HYDROXYCAMPTOTHECIN] | 12
8 | CC(NCCC(c1ccccc1)c1ccccc1)c1ccccc1 (centres unmarked) [FENDILINE HYDROCHLORIDE] | 1
9 | CC(C)(C)c1cnc(CSc2cnc(NC(=O)C3CCNCC3)s2)o1 [BMS-387032] | 18
10 | CCN(CC)CCNC(=O)c1c(C)[nH]c(/C=C2\C(=O)Nc3ccc(F)cc32)c1C [SUNITINIB MALATE] | 15
11 | CCCCC(CC)CNC(=N)NC(=N)NCCCCCCNC(=N)NC(=N)NCC(CC)CCCC (centres unmarked) [ALEXIDINE] | 18
12 | COc1cc([C@@H]2c3cc4c(cc3[C@@H](O[C@@H]3O[C@@H]5CO[C@@H](C)O[C@H]5[C@H](O)[C@H]3O)[C@H]3COC(=O)[C@H]23)OCO4)cc(OC)c1O [ETOPOSIDE] | 5
13 | COc1ncnc(NS(=O)(=O)c2ccc(N)cc2)c1OC [SULFADOXINE] | 1
14 | C#C[C@]1(O)CC[C@H]2[C@@H]3CCc4cc(O)ccc4[C@H]3CC[C@@]21C [ETHINYL ESTRADIOL] | 1
15 | CN1CCN(CCCN2c3ccccc3Sc3ccc(C(F)(F)F)cc32)CC1 [TRIFLUOPERAZINE] | 3
16 | COc1cc([C@@H]2c3cc4c(cc3[C@@H](O[C@@H]3O[C@@H]5CO[C@@H](c6cccs6)O[C@H]5[C@H](O)[C@H]3O)[C@H]3COC(=O)[C@H]23)OCO4)cc(OC)c1O [TENIPOSIDE] | 10
17 | COCCCC/C(=N\OCCN)c1ccc(C(F)(F)F)cc1 [FLUVOXAMINE MALEATE] | 1
18 | CCC(=O)O[C@]1(C(=O)CCl)[C@@H](C)C[C@H]2[C@@H]3C[C@H](F)C4=CC(=O)C=C[C@]4(C)[C@@]3(F)[C@@H](O)C[C@@]21C [HALOBETASOL PROPIONATE] | 3
19 | TYLOXAPOL | 8
20 | C[C@@H]1C[C@H]2[C@@H]3CCC4=CC(=O)C=C[C@]4(C)[C@@]3(Cl)[C@@H](O)C[C@]2(C)[C@@]1(OC(=O)c1ccco1)C(=O)CCl [MOMETASONE FUROATE] | 2
21 | COc1cccc2c1C(=O)c1c(O)c3c(c(O)c1C2=O)C[C@@](O)(C(C)=O)C[C@@H]3O[C@H]1C[C@H](N)[C@H](O)[C@H](C)O1 [DAUNORUBICIN] | 18
22 | CN1CCC(CNc2ccc3ncc(-c4cccc(OC(F)(F)F)c4)n3n2)CC1 [SGI-1776] | 14

Row | Compound | #Cases >70% cell death
23 | Cn1nnc2c(C(N)=O)ncn2c1=O [TEMOZOLAMIDE] | 14
24 | O=C1NCCc2[nH]c(-c3ccncc3)cc21 [PHA-767491] | 18
25 | CC[C@H]1OC(=O)C[C@@H](O)[C@H](C)[C@@H](O[C@@H]2O[C@H](C)[C@@H](O[C@H]3C[C@@](C)(O)[C@@H](O)[C@H](C)O3)[C@H](N(C)C)[C@H]2O)[C@@H](CC=O)C[C@@H](C)C(=O)/C=C/C(C)=C/[C@@H]1CO[C@@H]1O[C@H](C)[C@@H](O)[C@@H](OC)[C@H]1OC [TYLOSIN] | 1
26 | Cn1cnc([N+](=O)[O-])c1Sc1ncnc2nc[nH]c12 [AZATHIOPRINE] | 10
27 | Cc1nc(Nc2ncc(C(=O)Nc3c(C)cccc3Cl)s2)cc(N2CCN(CCO)CC2)n1 [DASATINIB] | 6
28 | CC(=O)O[C@@]12CO[C@@H]1C[C@H](O)[C@@]1(C)C(=O)[C@H](O)C3=C(C)[C@@H](O)C[C@@](O)([C@@H](OC(=O)c4ccccc4)[C@H]21)C3(C)C [10-DAB] | 1
29 | S=c1nc[nH]c2nc[nH]c12 [MERCAPTOPURINE] | 10
30 | CN1CCc2c(c3ccccc3n2Cc2ccccc2)C1 [MEBHYDROLIN] | 1
31 | C[C@@H](NCCCc1cccc(C(F)(F)F)c1)c1cccc2ccccc12 [AMG-073 HCL] | 1
32 | COc1ccc(CN2CCN(C(c3ccc(F)cc3)c3ccc(F)cc3)CC2)c(OC)c1OC [LOMERIZINE] | 7
33 | CN(C)C[C@@H]1CCn2cc(c3ccccc32)C2=C(C(=O)NC2=O)c2cn(c3ccccc23)CCO1 [LY333531] | 12
34 | CC[C@@]1(O)C(=O)OCc2c1cc1n(c2=O)Cc2cc3c(CN(C)C)c(O)ccc3nc2-1 [TOPOTECAN] | 13
35 | COc1ccc(S(=O)(=O)N(C(C)=O)c2ccccc2/C=C/c2cc[n+]([O-])cc2)cc1 [HMN-214] | 5
36 | O=C(c1ccc(OCCN2CCCCC2)cc1)c1c(-c2ccc(O)cc2)sc2cc(O)ccc12 [RALOXIFENE] | 3
37 | CC[C@]1(O)C[C@@H]2CN(CCc3c([nH]c4ccccc34)[C@@](C(=O)OC)(c3cc4c(cc3OC)N(C)[C@H]3[C@@](O)(C(=O)OC)[C@H](OC(C)=O)[C@]5(CC)C=CCN6CC[C@]43[C@@H]65)C2)C1 [VINBLASTINE] | 14
38 | COC(=O)Nc1nc2ccc(C(=O)c3ccccc3)cc2[nH]1 [MEBENDAZOLE] | 5
39 | C[C@]12C=CC(=O)C=C1CC[C@@H]1[C@@H]2[C@@H](O)C[C@@]2(C)[C@H]1CC[C@]2(O)C(=O)CO [PREDNISOLONE] | 1
40 | Cc1cc(C2CCCCC2)n(O)c(=O)c1 [CICLOPIROX] | 14
41 | CCCCNc1ccc(C(=O)OCCN(C)C)cc1 [TETRACAINE] | 12
42 | COc1c(C)cnc(Cn2cnc3c(Cl)nc(N)nc32)c1C [CNF-2024] | 18
43 | COc1ccc2cc3[n+](cc2c1OC)CCc1cc2c(cc1-3)OCO2 [BERBERINE CHLORIDE] | 1

Row | Compound | #Cases >70% cell death
44 | O=c1[nH]c2ccccc2n1C1CCN(CCCC(c2ccc(F)cc2)c2ccc(F)cc2)CC1 [PIMOZIDE] | 1
45 | CNC(=O)c1cc(Oc2ccc(NC(=O)Nc3ccc(Cl)c(C(F)(F)F)c3)c(F)c2)ccn1 [REGORAFENIB] | 9
46 | EPRINOMECTIN | 5
47 | Oc1c(I)cc(Cl)c2cccnc12 [CLIOQUINOL] | 6
48 | Cc1nc2ccccc2n1Cc1ccc(Cl)cc1 [CHLORMIDAZOLE] | 1
49 | CO[C@H]1C[C@H](O[C@@H]2/C(C)=C/C[C@@H]3C[C@@H](C[C@]4(CC[C@H](C)[C@@H](C5CCCCC5)O4)O3)OC(=O)[C@@H]3C=C(C)/C(=N/O)[C@H]4OC/C(=C\C=C\[C@@H]2C)[C@]43O)O[C@@H](C)[C@@H]1O [SELAMECTIN] | 18
50 | CC1(C)CC(=O)c2c(C(F)(F)F)nn(-c3ccc(C(N)=O)c(N[C@H]4CC[C@H](O)CC4)c3)c2C1 [PF-04928473] | 18
51 | COc1cccc2c1C(=O)c1c(O)c3c(c(O)c1C2=O)C[C@@](O)(C(=O)CO)C[C@@H]3O[C@H]1C[C@H](N)[C@H](O)[C@H](C)O1 [DOXORUBICIN] | 18
52 | Nc1nc2nc[nH]c2c(=S)[nH]1 [TIOGUANINE (6-thioguanine), TIOGUANINE] | 16
53 | CC(=O)OC[C@H]1O[C@@H]([S-])[C@H](OC(C)=O)[C@@H](OC(C)=O)[C@@H]1OC(C)=O.CCP(CC)CC.[Au+] [AURANOFIN] | 17
54 | c1ccc(CC2=NCCN2)cc1 [TOLAZOLINE HYDROCHLORIDE] | 4
55 | CC(C)C[C@H](NC(=O)[C@H](CCc1ccccc1)NC(=O)CN1CCOCC1)C(=O)N[C@@H](Cc1ccccc1)C(=O)N[C@@H](CC(C)C)C(=O)[C@@]1(C)CO1 [CARFILZOMIB] | 18
56 | CC(C)(C)c1nc(-c2cccc(NS(=O)(=O)c3c(F)cccc3F)c2F)c(-c2ccnc(N)n2)s1 [DABRAFENIB] | 4
57 | N=C(N)NC(=O)Cc1c(Cl)cccc1Cl [GUANFACINE HCL] | 1
58 | Clc1ccc2c(c1)CCc1cccnc1C2=C1CCNCC1 [DESLORATADINE] | 1
59 | COc1c(C)c2c(c(O)c1C/C=C(\C)CCC(=O)O)C(=O)OC2 [MYCOPHENOLIC ACID] | 5
60 | CNC(=O)c1ccccc1Sc1ccc2c(/C=C/c3ccccn3)n[nH]c2c1 [AXITINIB] | 9
61 | c1ccc(-c2ccc(C(c3ccccc3)n3ccnc3)cc2)cc1 (centres unmarked) [BIFONAZOLE] | 1
62 | COc1cc(NC(C)CCCN)c2ncccc2c1 (centres unmarked) [PRIMAQUINE] | 12
